Data reported in US10995260B2, “Methods for determining an optimal surfactant structure for oil recovery” (University of Wyoming, priority 2017, dated 2021).

Assay: Dynamic interfacial tension of surfactant solution/crude oil (rising/captive bubble tensiometry)
Assay type: physicochemical
Details: time for IFT to reach half of its value between γo and γm; 0.1% wt surfactant, municipal water/crude oil, ambient conditions
Protocol: Interfacial tension tests were carried out in accordance with the invention. Dynamic IFT and contact angles were measured using rising/captive bubble tensiometry enhanced by image acquisition with a high-resolution Charged Coupled Device (CCD) digital camera and apochromatically-corrected lens. The apparatus includes a Hastelloy measurement cell, a Hastelloy dual-cylinder pulse-free Quizix pump (to provide constant flow rate and pressure), a temperature control module, a data acquisition computer, an oven, and an in-line density meter (Anton Paar DMA HPM) to measure the density of fluids at actual experimental conditions. The system tolerates reservoir conditions with pressures and temperatures up to 10,000 psi and 150° C., respectively (V. Mirchi, S. Saraji, L. Goual, M. Piri, Dynamic interfacial tension and wettability of shale in the presence of surfactants at reservoir conditions, Fuel, vol. 148, pp. 127-138, 2015).
For IFT measurements, after establishing ambient (e.g., 14.7 psi and 20° C.) or reservoir conditions (e.g., 6840 psi and 120° C.) in a cell saturated with brine, a bubble of crude oil was created inside the measurement cell through a needle (0.3-1.6 mm outside diameter). Images of oil bubbles were captured at 5-second intervals to measure dynamic interfacial tension. IFT values were obtained by fitting the drop profile to the Young-Laplace equation using Axisymetric Drop Shape Analysis (ADSA) software.
A series of dynamic IFT measurements with municipal water and crude oil were performed at ambient conditions to examine the surface activity of selected surfactants. FIGS. 5A-5F present dynamic IFT results of a homologous series of nonionic surfactant solutions with 0.1% wt concentration, which is above the critical micelle concentration (CMC) of all the surfactants studied. The size of the hydrophobic and hydrophilic parts of the surfactants were altered independently and their impact on oil/brine interfacial tension was investigated.
In addition, the dynamic IFT of certain surfactants was measured at reservoir conditions. In particular, the impact of elevated temperatures and pressures on the performance of these surfactants was evaluated. IFT values of crude oil and surfactant solutions were measured at 6840 psi and 120° C.
As shown by Equation 1, three typical regions of dynamic IFT reduction exist: (I) induction region, (II) rapid fall region, and (III) mesoequilibrium region (X. Y. Hua, M. J. Rosen, Dynamic surface tension of aqueous surfactant solutions: I. Basic parameters, Journal of Colloid and Interface Science, vol. 124, no. 2, pp. 652-659, 1988). log(γ0−γt)−log(γt−γm)=n log t−n log t* (1)
In Equation 1, γt is the IFT of surfactant solution at time t, γm is the mesoequilibrium interfacial tension (when γt is almost stabilized), γo is the IFT in the absence of surfactant, and t* is the required time for IFT to reach half of its value between γo and γm. The value of n is a constant number related to the structure of surfactants and correlates to the difference between surfactants' adsorption and desorption. Increasing nonionic surfactants' polyoxyethylene chain length reduces the value of n (T. Gao, M. J. Rosen, Dynamic surface tension of aqueous surfactant solutions: 7. physical significance of dynamic parameters and the induction period, Journal of Colloid and Interface Science, vol. 172, no. 1, pp. 242-248, 1995).

Row | t* | Substance
1 | 11.6 min | CH3(CH2)8-10(OC2H4)8.3OH [CH2 8-10, EO 8]
2 | 23 min | CH3(CH2)11-14(OC2H4)3OH [CH2 11-14, EO 3]
3 | 16.5 min | CH3(CH2)8-10(OC2H4)2.5OH [CH2 8-10, EO 2.5]
4 | 9.3 min | CH3(CH2)11-14(OC2H4)7.25OH [CH2 11-14, EO 7.25]
5 | 7.83 min | CH3(CH2)11-13(OC2H4)8.2OH [CH2 11-14, EO 8.2]
6 | 12.3 min | CH3(CH2)8-10(OC2H4)6-6.5OH [CH2 8-10, EO 6]
